Assay results taken from PMC7824341, “Phenylhydrazone and Quinazoline Derivatives from the Cold-Seep-Derived Fungus Penicillium oxalicum” (Marine Drugs, 2020).
Values after ≈ are worked out from the molar mass of the structure shown. Read-outs that look alike come from different tables or passages of the source.

Columns and labels:
[1] = test system: Vibrio harveyi; assay: Antibacterial disk diffusion method; format: cell-based; conditions: at 20 μg/disk, read-out: Inhibitory Zone Diameter V. harveyi
Procedure: (§1) Mariculture is often threatened by harmful algal blooms and pathogenic bacteria. Compounds 1–5 and dankasterone A were assayed for inhibition of the three microalgae Chattonella marina, Heterosigma akashiwo, and Prorocentrum donghaiense, and the results are shown in Table 4. […] In addition, their inhibition against four marine-derived bacterial pathogens including Vibrio anguillarum, Vibrio harveyi, Vibrio parahaemolyticus, and Vibrio splendidus was detected using the disk diffusion method. […] The MIC values of active molecules were also measured, but only those of 4 and 5 (8 μg/mL) appeared lower than 10 μg/mL. […] In view of the above inhibitory effects of 1, 4, 5, and dankasterone A on the microalgal and bacterial species, their toxicities to the marine zooplankton Artemia salina were also tested.

[2] = test system: Vibrio splendidus; assay: Antibacterial disk diffusion method; format: cell-based; conditions: at 20 μg/disk; for zone of inhibition at 20 µg/disc: Vibrio splendidus, read-out: Inhibitory Zone Diameter V. splendidus
Procedure: as §1

[3] = test system: Vibrio parahaemolyticus; assay: Antibacterial disk diffusion method; format: cell-based; conditions: at 20 μg/disk, read-out: Inhibitory Zone Diameter V. parahaemolyticus
Procedure: as §1

[4] = test system: Vibrio anguillarum; assay: Antibacterial disk diffusion method; format: cell-based; conditions: at 20 μg/disk; for zone of inhibition at 20 µg/disc: Vibrio anguillarum, read-out: Inhibitory Zone Diameter V. anguillarum
Procedure: as §1

[5] = test system: Chattonella marina; assay: Inhibition of marine microalgae; format: cell-based; conditions: microalga Chattonella marina; for IC50: Chattonella marina, read-out: IC50 C. marina
Procedure: as §1

[6] = test system: Prorocentrum donghaiense; assay: Inhibition of marine microalgae; format: cell-based; conditions: microalga Prorocentrum donghaiense; for IC50: Prorocentrum donghaiense, read-out: IC50 P. donghaiense
Procedure: as §1

[7] = test system: Heterosigma akashiwo; assay: Inhibition of marine microalgae; format: cell-based; conditions: microalga Heterosigma akashiwo; for IC50: Heterosigma akashiwo, read-out: IC50 H. akashiwo
Procedure: as §1

[8] = in vivo; conditions: in vivo; marine zooplankton Artemia salina
Procedure: as §1

[9] = test system: V. harveyi and V. parahaemolyticus; assay: MIC of active molecules against marine-derived bacterial pathogens; format: cell-based, Vibrio harveyi, Vibrio parahaemolyticus; conditions: bacterial strain not given, active molecules were those inhibiting V. harveyi and V. parahaemolyticus
Procedure: as §1

[10] = test system: Artemia salina; assay: in vivo; conditions: marine zooplankton Artemia salina
Procedure: as §1

| SMILES | zone of inhibition at 20 µg/disc [1] | zone of inhibition at 20 µg/disc [2] | zone of inhibition at 20 µg/disc [3] | zone of inhibition at 20 µg/disc [4] | IC50 [5] | IC50 [6] | IC50 [7] | LC50 [8] | Inhibitory Zone Diameter V. anguillarum [4] | IC50 C. marina [5] | IC50 P. donghaiense [6] | MIC ([9]; read-out: MIC) | Inhibitory Zone Diameter V. splendidus [2] | IC50 H. akashiwo [7] | LC50 A. salina [10] | MIC [9] |
| --- | --- | --- | --- | --- | --- | --- | --- | --- | --- | --- | --- | --- | --- | --- | --- | --- |
| CC(C)C(C)C=CC(C)C1CCC(=O)C23CC(=O)C4=CC(=NNc5ccccc5C(=O)O)CCC4(C)C2CCC13C (stereo not shown) [Compound 1, Penoxahydrazone A] | > 10 mm | 0 mm | > 10 mm | 0 mm | 1.2 µg/mL (≈ 2.15 µM) | 0.68 µg/mL (≈ 1.22 µM) | 3.7 µg/mL (≈ 6.62 µM) | 58 µg/mL (≈ 104 µM) |  |  |  |  |  |  |  |  |
| COC(=O)C(Cc1ccc(O)cc1)n1cnc2ccccc2c1=O (stereo not shown) [Compound 4, Penoxazolone A] | > 10 mm | 7.3 mm | > 10 mm |  |  |  | 8.1 µg/mL (≈ 25 µM) | > 100 µg/mL | 7.0 mm | 2.8 µg/mL (≈ 8.63 µM) | 0.57 µg/mL (≈ 1.76 µM) | 8 µg/mL |  |  |  |  |
| COC(=O)C(Cc1ccc(O)cc1)n1cnc2ccccc2c1=O (stereo not shown) [Compound 5, Penoxazolone B] |  |  |  |  |  |  |  |  | 0 mm | 9.1 µg/mL (≈ 28.1 µM) | 1.2 µg/mL (≈ 3.7 µM) |  | 7.0 mm | 9.0 µg/mL (≈ 27.7 µM) | >100 µg/mL | 8 µg/mL |
| [K+].[K+].[O]=[Cr](=[O])([O-])[O][Cr](=[O])(=[O])[O-] [Compound K2Cr2O7, K2Cr2O7, reference compound] |  |  |  |  |  |  |  |  |  | 0.60 µg/mL | 1.2 µg/mL |  |  | 2.4 µg/mL | 18 µg/mL |  |
| O=C(N[C@H](CO)[C@H](O)c1ccc([N+](=O)[O-])cc1)C(Cl)Cl [chloramphenicol, reference compound] | 29 mm | 23 mm | 28 mm | 18 mm |  |  |  |  |  |  |  |  |  |  |  |  |
| CC(C)[C@@H](C)/C=C/[C@@H](C)[C@H]1CCC(=O)[C@]23CC(=O)C4=CC(=O)CC[C@]4(C)[C@H]2CC[C@]13C [dankasterone A] | > 10 mm | 0 mm | > 10 mm | 7 mm | 1.9 µg/mL (≈ 4.47 µM) | 1 µg/mL (≈ 2.36 µM) | 4.6 µg/mL (≈ 10.8 µM) | 43 µg/mL (≈ 101 µM) |  |  |  |  |  |  |  |  |
